The subject of assay [1] is TT cells. Description: RET kinase cell-based proliferation assay. The arrangement: species or system human. As to conditions: 192 h, read-out: RET IC50. The text has this: RET Kinase Cell-Based Proliferation Assay
For assay [2], the target named is RET kinase (Homo sapiens, UniProt P07949, C634W). Description: RET kinase cell-based mechanistic assay (constitutive RET kinase phosphorylation in TT cells).
Method: RET Kinase Cell-Based Mechanistic Assay
The potency of the compound of the invention was tested for its ability to inhibit constitutive RET kinase phosphorylation in cell-based assay. […] 1.0E5 TT cells/well were plated in a 96-well cell culture plate and allowed to adhere overnight. […] IC50s were fitted using GraphPad Prism to a sigmoidal dose response.
Setting [3] is: human RET kinase cell-based proliferation assay, TT cells, eight days, CellTiter-Glo, Table 4.

Where a name gives a salt, the structure may show the parent alone. Read-outs that look alike come from different tables or passages of the source.

Sequence of RET kinase (P07949 29-1114 C634W): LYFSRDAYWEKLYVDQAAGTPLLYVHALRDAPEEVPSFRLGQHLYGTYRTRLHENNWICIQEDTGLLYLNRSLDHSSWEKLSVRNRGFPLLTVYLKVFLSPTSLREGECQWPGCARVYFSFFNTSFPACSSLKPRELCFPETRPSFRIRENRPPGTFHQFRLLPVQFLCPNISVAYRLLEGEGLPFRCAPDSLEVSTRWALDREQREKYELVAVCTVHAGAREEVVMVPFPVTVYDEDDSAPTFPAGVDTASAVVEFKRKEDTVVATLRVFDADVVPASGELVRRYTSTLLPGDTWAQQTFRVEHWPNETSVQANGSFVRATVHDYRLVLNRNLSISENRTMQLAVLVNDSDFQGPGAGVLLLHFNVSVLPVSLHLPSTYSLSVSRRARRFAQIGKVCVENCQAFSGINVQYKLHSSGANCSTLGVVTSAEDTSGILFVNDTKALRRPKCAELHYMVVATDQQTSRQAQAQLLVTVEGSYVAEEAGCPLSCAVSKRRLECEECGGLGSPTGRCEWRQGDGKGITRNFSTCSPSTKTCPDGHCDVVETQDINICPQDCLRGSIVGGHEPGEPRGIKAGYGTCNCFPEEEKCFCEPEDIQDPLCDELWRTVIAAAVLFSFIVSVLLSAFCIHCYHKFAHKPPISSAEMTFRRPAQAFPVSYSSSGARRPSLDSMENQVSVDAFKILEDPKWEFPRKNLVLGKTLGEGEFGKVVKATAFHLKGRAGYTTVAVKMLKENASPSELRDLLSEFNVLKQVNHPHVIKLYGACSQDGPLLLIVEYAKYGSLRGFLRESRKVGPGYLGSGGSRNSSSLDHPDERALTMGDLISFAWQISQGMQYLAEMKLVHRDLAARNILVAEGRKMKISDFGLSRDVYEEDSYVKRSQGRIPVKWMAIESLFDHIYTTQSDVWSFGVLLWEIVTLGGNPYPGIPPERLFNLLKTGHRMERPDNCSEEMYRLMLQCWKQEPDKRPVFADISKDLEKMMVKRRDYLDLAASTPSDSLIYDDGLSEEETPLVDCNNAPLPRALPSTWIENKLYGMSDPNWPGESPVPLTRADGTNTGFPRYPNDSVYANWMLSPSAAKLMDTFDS

As usually defined, the IC50 is the concentration at which inhibition is half-maximal. For the molecule `CCOc1cc(-c2ccc(CC(=O)Nc3cnc(C(C)(C)O)c(C(F)(F)F)c3)c(F)c2)c[nH]c1=O` [Example 1, 2-(4-(5-Ethoxy-6-oxo-1,6-dihydropyridin-3-yl)-2-fluorophenyl)-N-(6-(2-hydroxypropan-2-yl)-5-(trifluoromethyl)pyridin-3-yl)acetamide], the IC50 in assay [1] (setting [3]) and in assay [2] was 100 to 500 nM throughout. Consider `CCOc1ncc(NC(=O)Cc2ccc(-c3c[nH]c(=O)c(OCC)c3)cc2F)cc1C(F)(F)F` [Example 2, N-(6-Ethoxy-5-(trifluoromethyl)pyridin-3-yl)-2-(4-(5-ethoxy-6-oxo-1,6-dihydropyridin-3-yl)-2-fluorophenyl)acetamide, Hydrochloride], for which the IC50 was 100 to 500 nM in assay [1] (Homo sapiens, TT) and under 100 nM in assay [2].

In the case of `CCOc1cc(-c2ccc(CC(=O)Nc3ccc(CC(C)(C)CO)c(C(F)(F)F)c3)c(F)c2)c[nH]c1=O` [Example 5, 2-(4-(5-Ethoxy-6-oxo-1,6-dihydropyridin-3-yl)-2-fluorophenyl)-N-(4-(3-hydroxy-2,2-dimethylpropyl)-3-(trifluoromethyl)phenyl)acetamide], the IC50 in assay [1] (setting [3]) and in assay [2] was under 100 nM in each case. Consider `CCOc1cc(-c2ccc(CC(=O)Nc3ccc(CC(C)(C)CO)c(C(F)(F)F)c3)cc2F)c[nH]c1=O` [Example 6, 2-(4-(5-Ethoxy-6-oxo-1,6-dihydropyridin-3-yl)-3-fluorophenyl)-N-(4-(3-hydroxy-2,2-dimethylpropyl)-3-(trifluoromethyl)phenyl)acetamide], for which the IC50 in assay [1] (setting [3]) and in assay [2] was under 100 nM each time.

Regarding `CCOc1cc(=O)[nH]cc1-c1ccc(CC(=O)Nc2ccc(C#N)c(C(F)(F)F)c2)cc1F` [Example 7, N-(4-Cyano-3-(trifluoromethyl)phenyl)-2-(4-(4-ethoxy-6-oxo-1,6-dihydropyridin-3-yl)-3-fluorophenyl)acetamide], the IC50 in assay [1] (setting [3]) and in assay [2] was 100 to 500 nM each time. With `CCOc1cc(-c2ccc(CC(=O)Nc3ccc(C#N)c(C(F)(F)F)c3)c(F)c2)c[nH]c1=O` [Example 9, N-(4-Cyano-3-(trifluoro-methyl)phenyl)-2-(4-(5-ethoxy-6-oxo-1,6-dihydro-pyridin-3-yl)-2-fluorophenyl)acetamide], the IC50 in assay [1] (setting [3]) and in assay [2] was 100 to 500 nM throughout.

With `CCOc1cc(-c2ccc(CC(=O)Nc3cc(-n4cnc(C)c4)cc(C(F)(F)F)c3)c(F)c2)c[nH]c1=O` [Example 11, 2-(4-(5-Ethoxy-6-oxo-1,6-dihydropyridin-3-yl)-2-fluorophenyl)-N-(3-(4-methyl-1H-imidazol-1-yl)-5-(trifluoromethyl)phenyl)acetamide, Hydrochloride], the IC50 in assay [1] (Homo sapiens, TT) is 100 to 500 nM; in assay [2], under 100 nM. In the case of `CCOc1cc(-c2ccc(CC(=O)Nc3ccc(OCCO)c(C(F)(F)F)c3)c(F)c2)c[nH]c1=O` [Example 13, 2-(4-(5-Ethoxy-6-oxo-1,6-dihydropyridin-3-yl)-2-fluorophenyl)-N-(4-(2-hydroxyethoxy)-3-(trifluoromethyl)phenyl)acetamide], the IC50 in assay [1] (setting [3]) and in assay [2] was 100 to 500 nM in each case. Regarding `CCOc1cc(-c2ccc(CC(=O)Nc3ccc(Cl)c(C(F)(F)F)c3)c(F)c2)c[nH]c1=O` [Example 16, N-(4-Chloro-3-(trifluoromethyl)phenyl)-2-(4-(5-ethoxy-6-oxo-1,6-dihydropyridin-3-yl)-2-fluorophenyl)acetamide], the IC50 in assay [1] (setting [3]) is under 100 nM; in assay [2] it was 100 to 500 nM. In the case of `CCOc1cc(-c2ccc(CC(=O)Nc3ccc(CN(C)C)c(C(F)(F)F)c3)c(F)c2)c[nH]c1=O` [Example 17, N-(4-((Dimethylamino)methyl)-3-(trifluoromethyl)phenyl)-2-(4-(5-ethoxy-6-oxo-1,6-dihydropyridin-3-yl)-2-fluorophenyl)acetamide, Hydrochloride], the IC50 in assay [1] (Homo sapiens, TT) was 100 to 500 nM; in assay [2] it was under 100 nM. For `CCOc1cc(-c2ccc(CC(=O)Nc3ccc(Cl)c(Cl)c3)c(F)c2)c[nH]c1=O` [Example 18, N-(3,4-Dichlorophenyl)-2-(4-(5-ethoxy-6-oxo-1,6-dihydropyridin-3-yl)-2-fluorophenyl)acetamide], the IC50 in assay [1] (setting [3]) and in assay [2] was 500 to 10000 nM throughout. Take `CCOc1cc(-c2ccc(CC(=O)Nc3cc(C(C)(C)C(F)(F)F)on3)c(F)c2)c[nH]c1=O` [Example 19, 2-(4-(5-Ethoxy-6-oxo-1,6-dihydropyridin-3-yl)-2-fluorophenyl)-N-(5-(1,1,1-trifluoro-2-methylpropan-2-yl)isoxazol-3-yl)acetamide]: the IC50 in assay [1] (setting [3]) and in assay [2] was under 100 nM each time. `CCOc1cc(-c2ccc(CC(=O)Nc3ccc(CN4CCN(CC)CC4)c(C(F)(F)F)c3)c(F)c2)c[nH]c1=O` [Example 21, 2-(4-(5-Ethoxy-6-oxo-1,6-dihydropyridin-3-yl)-2-fluorophenyl)-N-(4-((4-ethylpiperazin-1-yl)methyl)-3-(trifluoromethyl)phenyl)acetamide, 2 Hydrochloride]: in assay [1] (setting [3]), the half-inhibitory concentration (IC50) was under 100 nM. In the case of `CCOc1cc(-c2ccc(CC(=O)Nc3ccc(C(N)=O)c(C(F)(F)F)c3)c(F)c2)c[nH]c1=O` [Example 23, 4-(2-(4-(5-ethoxy-6-oxo-1,6-dihydropyridin-3-yl)-2-fluorophenyl)acetamido)-2-(trifluoromethyl)benzamide], the IC50 in assay [1] (setting [3]) and in assay [2] was 500 to 10000 nM throughout. `CCOc1cc(-c2ccc(CC(=O)Nc3cc(C(F)(F)F)c(F)cc3F)c(F)c2)c[nH]c1=O` [Example 24, N-(2,4-difluoro-5-(trifluoromethyl)phenyl)-2-(4-(5-ethoxy-6-oxo-1,6-dihydropyridin-3-yl)-2-fluorophenyl)acetamide]: the IC50 in assay [1] (setting [3]) lay within 500 to 10000 nM; in assay [2], 100 to 500 nM. The corresponding values for `CCOc1cc(-c2ccc(CC(=O)Nc3cc(C(F)(F)F)cc(C(F)(F)F)c3)c(F)c2)c[nH]c1=O` [Example 25, N-(3,5-bis(trifluoromethyl)phenyl)-2-(4-(5-ethoxy-6-oxo-1,6-dihydropyridin-3-yl)-2-fluorophenyl)acetamide] are 500 to 10000 nM and 100 to 500 nM. For the molecule `CCOc1cc(-c2ccc(CC(=O)Nc3cc(C(F)(F)F)ccc3F)c(F)c2)c[nH]c1=O` [Example 26, 2-(4-(5-ethoxy-6-oxo-1,6-dihydropyridin-3-yl)-2-fluorophenyl)-N-(2-fluoro-5-(trifluoromethyl)phenyl)acetamide], the IC50 in assay [1] (setting [3]) lay in the range of 500 to 10000 nM.

Source of the values: US8937071B2, “Compounds as rearranged during transfection (RET) inhibitors” (GlaxoSmithKline Intellectual Property Development Limited, priority 2013, dated 2015).
